Publication PMC9516332 (Frontiers in Oncology, 2022)
Like-named read-outs stand apart in the source and are kept apart here.

Tested on: 134 cancer cell lines
Test: Cell viability assay (ATPlite, 72 hours), IC50 on cancer cell line panel

CCN1CCN(c2ccc(Nc3cc(N(C)C(=O)Nc4c(Cl)c(OC)cc(OC)c4Cl)ncn3)cc2)CC1 [infigratinib]
IC50 (Homo sapiens, MV4-11, read-out: IC50 in cell proliferation assay, MV4-11 cell line (FLT3 ITD)): 2.57 µM
IC50 (Homo sapiens, MeWo, read-out: IC50 in cell proliferation assay, MeWo cell line): > 3.16 µM
IC50 (Homo sapiens, NCCIT, read-out: IC50 in cell proliferation assay, NCC-IT cell line): 0.466 µM
IC50 (Homo sapiens, NCI-H82, read-out: IC50 in cell proliferation assay, cell line NCI-H82): > 3.16 µM
IC50 (Homo sapiens, NCI-H460, read-out: IC50 in cell proliferation assay, NCI-H460 cell line): > 3.16 µM
IC50 (Homo sapiens, NCI-H661, read-out: IC50 in cell proliferation assay, NCI-H661 cell line): > 3.16 µM
IC50 (Homo sapiens, NCI-H716, read-out: IC50 in cell proliferation assay, cell line NCI-H716 (FGFR2-COL14A1)): 0.02 µM
IC50 (Homo sapiens, NCI-H1650, read-out: IC50 in cell proliferation assay, NCI-H1650 cell line (EGFR exon19del)): 5.09 µM
IC50 (Homo sapiens, NCI-H1975, read-out: IC50 in cell proliferation assay, NCI-H1975 cell line (EGFR p.L858R + p.T790M)): > 3.16 µM
IC50 (Homo sapiens, NCI-H2228, read-out: IC50 in cell proliferation assay, NCI-H2228 cell line (EML4-ALK)): 4.38 µM
IC50 (Homo sapiens, OVCAR-3, read-out: IC50 in cell proliferation assay, cell line OVCAR-3): > 3.16 µM
IC50 (Homo sapiens, PFSK-1, read-out: IC50 in cell proliferation assay, cell line PFSK-1): > 3.16 µM
IC50 (Homo sapiens, RL95-2, read-out: IC50 in cell proliferation assay, cell line RL95-2 (EGFR p.A289V)): > 3.16 µM
IC50 (Homo sapiens, RPMI-7951, read-out: IC50 in cell proliferation assay, cell line RPMI-7951 (BRAF p.V600E)): > 3.16 µM
IC50 (Homo sapiens, RS4-11, read-out: IC50 in cell proliferation assay, cell line RS4;11): > 3.16 µM
IC50 (Homo sapiens, Rec1, read-out: IC50 in cell proliferation assay, cell line REC-1): 4 µM
IC50 (Homo sapiens, SHP77, read-out: IC50 in cell proliferation assay, cell line SHP-77): > 3.16 µM
IC50 (Homo sapiens, SK-BR-3, read-out: IC50 in cell proliferation assay, cell line SK-BR-3 (ERBB2 amplification)): > 3.16 µM
IC50 (Homo sapiens, SK-N-AS, read-out: IC50 in cell proliferation assay, cell line SK-N-AS): > 3.16 µM
IC50 (Homo sapiens, SK-N-FI, read-out: IC50 in cell proliferation assay, cell line SK-N-FI): > 3.16 µM
IC50 (Homo sapiens, SK-N-MC, read-out: IC50 in cell proliferation assay, cell line SK-N-MC): 3.21 µM
IC50 (Homo sapiens, SK-N-SH, read-out: IC50 in cell proliferation assay, cell line SK-N-SH (ALK p.F1174L)): 4.47 µM
IC50 (Homo sapiens, SNU-5, read-out: IC50 in cell proliferation assay, cell line SNU-5 (MET amplification)): > 3.16 µM
IC50 (Homo sapiens, SNU-16, read-out: IC50 in cell proliferation assay, cell line SNU-16 (FGFR2 amplification)): 0.028 µM
IC50 (Homo sapiens, SNU-C2B, read-out: IC50 in cell proliferation assay, cell line SNU-C2B (EGFR p.R165Q)): > 3.16 µM
IC50 (Homo sapiens, SU-DHL-1, read-out: IC50 in cell proliferation assay, cell line SU-DHL-1 (NPM1-ALK)): > 3.16 µM
IC50 (Homo sapiens, SU-DHL-6, read-out: IC50 in cell proliferation assay, cell line SU-DHL-6): > 3.16 µM
IC50 (Homo sapiens, SUP-T1, read-out: IC50 in cell proliferation assay, cell line SUP-T1): > 3.16 µM
IC50 (Homo sapiens, SW48, read-out: IC50 in cell proliferation assay, cell line SW48 (EGFR p.G719S)): > 3.16 µM
IC50 (Homo sapiens, SW480, read-out: IC50 in cell proliferation assay, cell line SW480): > 3.16 µM
IC50 (Homo sapiens, SW626, read-out: IC50 in cell proliferation assay, cell line SW626): > 3.16 µM
IC50 (Homo sapiens, SW780, read-out: IC50 in cell proliferation assay, cell line SW780 (FGFR3-BAIAP2L1)): 0.039 µM
IC50 (Homo sapiens, SW837, read-out: IC50 in cell proliferation assay, cell line SW837): > 3.16 µM
IC50 (Homo sapiens, SW872, read-out: IC50 in cell proliferation assay, cell line SW872 (BRAF p.V600E)): > 3.16 µM
IC50 (Homo sapiens, SW900, read-out: IC50 in cell proliferation assay, cell line SW900): > 3.16 µM
IC50 (Homo sapiens, SW948, read-out: IC50 in cell proliferation assay, cell line SW948): > 3.16 µM
IC50 (Homo sapiens, SW982, read-out: IC50 in cell proliferation assay, cell line SW982 (BRAF p.V600E)): > 3.16 µM
IC50 (Homo sapiens, SW-620, read-out: IC50 in cell proliferation assay, cell line SW620): > 3.16 µM
IC50 (Homo sapiens, T98G, read-out: IC50 in cell proliferation assay, cell line T98G): 0.135 µM
IC50 (Homo sapiens, TCC-SUP, read-out: IC50 in cell proliferation assay, cell line TCCSUP): > 3.16 µM
IC50 (Homo sapiens, THP-1, read-out: IC50 in cell proliferation assay, cell line THP-1): > 3.16 µM
IC50 (Homo sapiens, U2OS, read-out: IC50 in cell proliferation assay, cell line U2OS): > 3.16 µM
IC50 (Homo sapiens, U-87 MG, read-out: IC50 in cell proliferation assay, cell line U-87MG ATCC): > 3.16 µM
IC50 (Homo sapiens, U-118-MG, read-out: IC50 in cell proliferation assay, cell line U-118MG): > 3.16 µM
IC50 (Homo sapiens, UMUC3, read-out: IC50 in cell proliferation assay, cell line UM-UC-3): 0.625 µM
IC50 (Hs766T, read-out: IC50 in cell proliferation assay, Hs 766T cell line): > 3.16 µM
IC50 (Rh30, read-out: IC50 in cell proliferation assay, cell line Rh30): 0.525 µM
IC50 (read-out: IC50 in cell proliferation assay, 11-18 cell line (EGFR p.L858R)): > 3.16 µM
IC50 (read-out: IC50 in cell proliferation assay, Hs 852.T cell line): 5.37 µM
IC50 (read-out: IC50 in cell proliferation assay, JAR cell line): 2.99 µM
IC50 (read-out: IC50 in cell proliferation assay, cell line 5637): > 3.16 µM
IC50 (read-out: IC50 in cell proliferation assay, cell line A-388): > 3.16 µM
IC50 (read-out: IC50 in cell proliferation assay, cell line DB): > 3.16 µM
IC50 (read-out: IC50 in cell proliferation assay, cell line DEL (NPM1-ALK)): 3.51 µM
IC50 (read-out: IC50 in cell proliferation assay, cell line ES-2 (BRAF p.V600E)): > 3.16 µM
IC50 (read-out: IC50 in cell proliferation assay, cell line PA-1): 2.15 µM
IC50 (read-out: IC50 in cell proliferation assay, cell line PC-3): > 3.16 µM
IC50 (read-out: IC50 in cell proliferation assay, cell line RD): > 3.16 µM
IC50 (read-out: IC50 in cell proliferation assay, cell line RKO (BRAF p.V600E)): > 3.16 µM
IC50 (read-out: IC50 in cell proliferation assay, cell line RL): > 3.16 µM
IC50 (read-out: IC50 in cell proliferation assay, cell line RT-4 (FGFR3-TACC3)): 0.014 µM
IC50 (read-out: IC50 in cell proliferation assay, cell line SR (NPM1-ALK)): > 3.16 µM
IC50 (read-out: IC50 in cell proliferation assay, cell line T24): > 3.16 µM
IC50 (read-out: IC50 in cell proliferation assay, cell line TT (RET p.C634W)): > 3.16 µM
IC50 (read-out: IC50 in cell proliferation assay, cell line VA-ES-BJ): > 3.16 µM
